Tests used:
[1] = test system: over 300 kinases, including CDK-1, CDK-2, CDK-5, CLK-1, CLK-2, CLK-3, CLK-4, NEK-1, NEK-2, NEK-4, NEK-6, NEK-7, MAP4K4 and STK16; assay: Kinase panel screening at InVitrogen, over 300 kinases; details: 10 μM compound; all but 21 of the kinases, including CDK-1, CDK-2, CDK-5, CLK-1 to CLK-4, NEK-1, -2, -4, -6, -7, MAP4K4, STK16
PLK2 [2] = biological target: T1, PLK2 (Homo sapiens, UniProt Q9NYY3); assay: PLK TR-FRET peptide assay, PLK2; format: biochemical; details: PLK TR-FRET peptide assay, GST-PLK2, 60 min reaction; read-out: Plk2 IC50
KDR = KDR (Homo sapiens, UniProt P35968); assay: Kinase panel screening and titration, KDR; details: read-out: inhibition of KDR
PLK1 [3] = biological target: T2, PLK1 (Homo sapiens, UniProt P53350); assay: Kinase panel screening at InVitrogen, PLK1; details: 10 μM compound
PLK2 [4] = biological target: T1, PLK2; assay: Kinase panel screening at InVitrogen, PLK2; details: 10 μM compound
PLK1 [5] = biological target: T2, PLK1; assay: PLK TR-FRET peptide assay, PLK1; format: biochemical; details: GST-PLK1, 60 min reaction
ABL1 = ABL1 (Homo sapiens, UniProt P00519); assay: Kinase panel screening and titration, ABL1; details: read-out: inhibition of ABL1
PLK3 = PLK3 (Homo sapiens, UniProt Q9H4B4); assay: PLK TR-FRET peptide assay, PLK3; format: biochemical; details: GST-PLK3, 15 min reaction, read-out: Plk3 IC50
Sequence of PLK3 (Q9H4B4 whole entry): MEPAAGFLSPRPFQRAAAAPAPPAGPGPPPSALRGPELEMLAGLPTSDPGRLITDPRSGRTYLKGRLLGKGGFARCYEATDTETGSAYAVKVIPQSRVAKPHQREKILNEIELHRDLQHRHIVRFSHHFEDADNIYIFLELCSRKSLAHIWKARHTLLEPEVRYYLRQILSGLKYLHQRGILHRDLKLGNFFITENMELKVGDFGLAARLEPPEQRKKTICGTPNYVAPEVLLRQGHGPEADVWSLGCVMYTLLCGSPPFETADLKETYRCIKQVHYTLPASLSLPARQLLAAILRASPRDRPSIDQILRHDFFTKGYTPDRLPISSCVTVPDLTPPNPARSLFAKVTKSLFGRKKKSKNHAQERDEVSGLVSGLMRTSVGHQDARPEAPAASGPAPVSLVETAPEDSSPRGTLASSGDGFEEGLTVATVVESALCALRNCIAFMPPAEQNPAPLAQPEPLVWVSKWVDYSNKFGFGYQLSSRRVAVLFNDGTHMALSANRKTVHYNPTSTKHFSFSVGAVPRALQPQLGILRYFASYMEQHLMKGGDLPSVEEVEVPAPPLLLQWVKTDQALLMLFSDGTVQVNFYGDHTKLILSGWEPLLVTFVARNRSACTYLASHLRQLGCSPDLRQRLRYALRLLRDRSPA

T2 sequence (P53350 whole entry): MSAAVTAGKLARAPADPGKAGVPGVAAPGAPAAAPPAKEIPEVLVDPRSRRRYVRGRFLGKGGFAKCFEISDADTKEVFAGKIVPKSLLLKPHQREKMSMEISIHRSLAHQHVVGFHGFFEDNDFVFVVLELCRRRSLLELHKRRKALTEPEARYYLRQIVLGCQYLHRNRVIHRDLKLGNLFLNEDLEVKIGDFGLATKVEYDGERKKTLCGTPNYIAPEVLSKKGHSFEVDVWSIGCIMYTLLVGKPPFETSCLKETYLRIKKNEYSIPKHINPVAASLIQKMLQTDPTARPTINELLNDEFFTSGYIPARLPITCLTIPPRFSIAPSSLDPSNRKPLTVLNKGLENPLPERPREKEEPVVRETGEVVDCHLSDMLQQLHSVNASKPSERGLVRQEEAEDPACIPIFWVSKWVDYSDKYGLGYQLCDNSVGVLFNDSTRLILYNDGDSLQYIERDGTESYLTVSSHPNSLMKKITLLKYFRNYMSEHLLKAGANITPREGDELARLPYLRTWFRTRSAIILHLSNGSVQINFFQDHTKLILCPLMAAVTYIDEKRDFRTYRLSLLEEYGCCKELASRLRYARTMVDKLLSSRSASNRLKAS
T1 sequence (Q9NYY3 whole entry): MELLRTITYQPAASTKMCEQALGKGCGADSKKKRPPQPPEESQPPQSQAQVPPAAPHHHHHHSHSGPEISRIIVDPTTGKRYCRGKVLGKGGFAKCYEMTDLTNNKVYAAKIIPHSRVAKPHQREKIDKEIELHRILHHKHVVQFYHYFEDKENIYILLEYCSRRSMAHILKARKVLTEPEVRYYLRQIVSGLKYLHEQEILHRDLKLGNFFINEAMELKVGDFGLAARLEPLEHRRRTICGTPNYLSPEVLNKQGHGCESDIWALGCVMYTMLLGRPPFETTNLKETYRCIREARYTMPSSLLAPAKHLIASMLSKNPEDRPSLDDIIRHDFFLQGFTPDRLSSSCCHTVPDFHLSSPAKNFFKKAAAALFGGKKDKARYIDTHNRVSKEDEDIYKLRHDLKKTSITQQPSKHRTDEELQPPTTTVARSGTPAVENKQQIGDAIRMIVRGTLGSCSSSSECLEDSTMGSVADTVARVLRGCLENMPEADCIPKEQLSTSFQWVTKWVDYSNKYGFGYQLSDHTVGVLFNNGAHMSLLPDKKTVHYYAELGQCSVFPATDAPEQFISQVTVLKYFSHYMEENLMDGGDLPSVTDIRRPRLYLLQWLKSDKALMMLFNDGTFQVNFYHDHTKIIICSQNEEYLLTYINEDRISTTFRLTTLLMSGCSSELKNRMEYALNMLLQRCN
Sequence of ABL1 (P00519 whole entry): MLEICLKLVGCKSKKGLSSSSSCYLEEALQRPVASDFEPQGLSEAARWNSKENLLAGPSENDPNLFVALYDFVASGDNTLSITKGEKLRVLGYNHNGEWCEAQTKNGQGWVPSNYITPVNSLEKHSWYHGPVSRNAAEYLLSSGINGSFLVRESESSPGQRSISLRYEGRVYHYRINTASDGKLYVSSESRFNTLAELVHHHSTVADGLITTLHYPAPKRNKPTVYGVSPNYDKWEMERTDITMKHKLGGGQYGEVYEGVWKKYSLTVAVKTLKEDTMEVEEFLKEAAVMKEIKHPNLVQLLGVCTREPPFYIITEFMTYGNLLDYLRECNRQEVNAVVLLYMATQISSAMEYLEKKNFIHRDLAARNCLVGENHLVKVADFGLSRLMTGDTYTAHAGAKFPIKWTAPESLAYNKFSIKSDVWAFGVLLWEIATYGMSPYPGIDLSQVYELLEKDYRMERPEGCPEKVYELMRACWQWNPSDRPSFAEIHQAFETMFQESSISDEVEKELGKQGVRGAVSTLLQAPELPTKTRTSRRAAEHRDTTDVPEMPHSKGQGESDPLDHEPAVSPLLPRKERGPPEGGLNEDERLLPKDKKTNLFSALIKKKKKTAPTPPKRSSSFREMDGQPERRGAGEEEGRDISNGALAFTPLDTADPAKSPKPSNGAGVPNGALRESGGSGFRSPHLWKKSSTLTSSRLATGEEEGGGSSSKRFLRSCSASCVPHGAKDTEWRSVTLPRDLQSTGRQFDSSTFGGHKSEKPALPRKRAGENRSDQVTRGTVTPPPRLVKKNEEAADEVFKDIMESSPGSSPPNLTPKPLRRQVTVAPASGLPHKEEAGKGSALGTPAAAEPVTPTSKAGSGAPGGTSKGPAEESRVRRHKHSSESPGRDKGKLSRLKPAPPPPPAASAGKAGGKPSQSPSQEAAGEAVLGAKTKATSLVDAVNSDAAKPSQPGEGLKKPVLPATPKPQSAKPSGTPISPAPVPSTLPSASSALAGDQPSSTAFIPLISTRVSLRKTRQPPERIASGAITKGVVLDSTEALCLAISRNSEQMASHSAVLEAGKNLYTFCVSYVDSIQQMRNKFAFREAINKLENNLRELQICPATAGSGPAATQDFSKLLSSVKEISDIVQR
Sequence of KDR (P35968 20-1356): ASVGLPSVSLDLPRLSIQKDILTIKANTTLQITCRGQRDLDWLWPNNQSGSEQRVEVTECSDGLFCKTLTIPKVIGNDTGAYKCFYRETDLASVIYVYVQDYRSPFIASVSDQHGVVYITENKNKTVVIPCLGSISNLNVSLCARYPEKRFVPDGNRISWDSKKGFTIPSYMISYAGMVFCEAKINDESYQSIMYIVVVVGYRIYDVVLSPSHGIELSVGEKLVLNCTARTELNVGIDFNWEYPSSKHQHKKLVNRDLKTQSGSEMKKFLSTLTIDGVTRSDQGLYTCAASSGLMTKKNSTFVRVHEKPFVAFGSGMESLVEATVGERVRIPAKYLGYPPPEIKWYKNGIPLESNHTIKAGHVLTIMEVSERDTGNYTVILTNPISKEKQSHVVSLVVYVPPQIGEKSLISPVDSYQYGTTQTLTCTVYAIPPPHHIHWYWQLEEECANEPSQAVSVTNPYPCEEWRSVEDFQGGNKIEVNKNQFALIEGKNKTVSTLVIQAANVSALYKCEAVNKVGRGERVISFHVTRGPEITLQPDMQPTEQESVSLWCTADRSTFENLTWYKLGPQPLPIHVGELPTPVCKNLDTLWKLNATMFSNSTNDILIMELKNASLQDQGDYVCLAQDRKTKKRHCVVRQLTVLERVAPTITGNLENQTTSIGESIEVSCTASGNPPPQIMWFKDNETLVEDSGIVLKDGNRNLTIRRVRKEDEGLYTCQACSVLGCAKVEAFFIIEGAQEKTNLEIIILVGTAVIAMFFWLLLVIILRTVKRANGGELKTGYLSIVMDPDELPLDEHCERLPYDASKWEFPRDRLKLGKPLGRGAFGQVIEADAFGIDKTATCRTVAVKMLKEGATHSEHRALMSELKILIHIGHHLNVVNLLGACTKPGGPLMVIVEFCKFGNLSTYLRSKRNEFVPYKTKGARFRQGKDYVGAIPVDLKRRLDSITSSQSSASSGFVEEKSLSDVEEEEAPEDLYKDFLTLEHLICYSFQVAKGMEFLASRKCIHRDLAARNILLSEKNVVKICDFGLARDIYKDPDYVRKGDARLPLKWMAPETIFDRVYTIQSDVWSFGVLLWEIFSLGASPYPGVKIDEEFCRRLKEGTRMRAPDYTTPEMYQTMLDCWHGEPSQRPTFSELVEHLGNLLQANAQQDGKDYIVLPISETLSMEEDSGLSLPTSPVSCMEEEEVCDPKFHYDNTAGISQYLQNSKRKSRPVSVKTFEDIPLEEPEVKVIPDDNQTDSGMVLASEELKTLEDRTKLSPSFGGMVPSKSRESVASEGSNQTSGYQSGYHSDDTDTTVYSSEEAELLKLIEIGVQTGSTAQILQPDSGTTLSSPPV

In the case of `CC[C@@H]1C(=O)N(C)c2cnc(-n3ccnc3-c3cccc(F)c3)nc2N1C1CCOC1` (stereo partly drawn) [Example 192, (7R)-7-ethyl-2-(2-(3-fluorophenyl)-1H-imidazol-1-yl)-5-methyl-8-(tetrahydrofuran-3-yl)-7,8-dihydropteridin-6(5H)-one], the “inhibition of kinases in panel of over 300” value [1] is reported as “below 40%”, the IC50 (PLK2 [2]) is reported as under 1000 nM and the inhibition at 10 µM (KDR) is reported as over 80%. For the same molecule, the “activity against PLK1 in kinase panel” value (PLK1 [3]) was “potent”, the “activity against PLK2 in kinase panel” value (PLK2 [4]) was “potent” and the IC50 (PLK1 [5]) was under 1000 nM. It also gave an inhibition at 10 µM (ABL1) of over 80% and an IC50 (PLK3) of 1000 to 10000 nM.

— patent US8541418B2, “Inhibitors of polo-like kinase” (Elan Pharmaceutical, Inc., priority 2009, dated 2013)
